Here are results for 17 compounds from patent publication US20130035326A1 (AMBIT BIOSCIENCES CORPORATION, priority 2009, published 2013).

One assay has as its target T1, FLT3 kinase (Homo sapiens, UniProt P36888).
T1 construct: made in house; host or cells: T7 phage display or HEK-293 cells
T1 sequence (P36888 27-993): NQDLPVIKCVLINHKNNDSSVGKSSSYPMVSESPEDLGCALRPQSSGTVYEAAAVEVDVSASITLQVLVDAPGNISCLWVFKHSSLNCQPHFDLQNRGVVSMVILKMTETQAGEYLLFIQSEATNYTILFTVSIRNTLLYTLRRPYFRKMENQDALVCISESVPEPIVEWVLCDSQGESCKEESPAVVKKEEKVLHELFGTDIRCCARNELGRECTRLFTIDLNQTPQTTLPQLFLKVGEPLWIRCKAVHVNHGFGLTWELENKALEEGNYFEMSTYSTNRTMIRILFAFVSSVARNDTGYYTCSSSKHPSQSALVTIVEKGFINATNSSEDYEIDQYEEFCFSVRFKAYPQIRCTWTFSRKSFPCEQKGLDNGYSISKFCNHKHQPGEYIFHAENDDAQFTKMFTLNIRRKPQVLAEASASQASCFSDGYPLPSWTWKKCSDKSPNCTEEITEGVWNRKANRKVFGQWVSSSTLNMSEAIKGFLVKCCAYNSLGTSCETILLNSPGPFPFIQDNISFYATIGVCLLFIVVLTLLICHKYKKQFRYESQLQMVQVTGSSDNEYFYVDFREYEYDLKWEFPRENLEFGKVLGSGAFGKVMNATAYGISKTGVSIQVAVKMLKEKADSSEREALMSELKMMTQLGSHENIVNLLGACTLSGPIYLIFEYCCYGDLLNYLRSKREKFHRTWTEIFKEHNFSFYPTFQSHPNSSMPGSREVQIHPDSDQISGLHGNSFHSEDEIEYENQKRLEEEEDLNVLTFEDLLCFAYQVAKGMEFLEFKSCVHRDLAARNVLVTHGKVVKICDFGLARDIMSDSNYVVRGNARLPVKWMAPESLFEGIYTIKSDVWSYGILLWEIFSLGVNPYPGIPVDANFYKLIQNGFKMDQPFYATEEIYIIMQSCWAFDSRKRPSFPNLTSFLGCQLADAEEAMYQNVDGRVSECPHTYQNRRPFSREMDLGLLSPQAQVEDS
Kind of assay: Competition binding assay, FLT3 Kd. Put shortly:
(§1)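 Steps: biotinylated ligand loaded on streptavidin magnetic beads 30 min; beads blocked with biotin; kinase, beads and compound combined 1 hour at room temperature; beads washed, eluted 30 min with 0.5 μM free ligand; eluted kinase measured by quantitative PCR. Kd derived from eleven-point threefold dilutions.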

Another assay concerns the target T2, KIT kinase (Homo sapiens, UniProt P10721).
T2 construct: made in house; host or cells: T7 phage display or HEK-293 cells
Kind of assay: Competition binding assay, KIT Kd. The procedure, abridged: as §1

In another assay the target is T3, CSF-1R kinase (Homo sapiens, UniProt P07333).
T3 construct: made in house; host or cells: T7 phage display or HEK-293 cells
The assay is described as follows: Competition binding assay, CSF-1R Kd. The procedure, abridged:
as §1

The subject of the next assay is MV4-11 cells. Kind of assay: MV4-11 cell proliferation assay (Alamar Blue). The assay is classed as cell-based. The conditions noted are these: Homo sapiens, MV4-11, 72 h, 3 days incubation. The procedure, abridged:
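Viability readout: Alamar Blue fluorescence, ex 560/em 590 nm, 3 h after reagent addition, after 3-day exposure of 64,000 MV4-11 cells per well to a 9-point half-log compound series in 0.5% FBS Iscove's. IC50 from duplicate averages, as 50% proliferation inhibition relative to negative control.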

For assay [1], the target named is kinase panel containing either 359 or 386 distinct kinases. The assay is described as follows: Selectivity score S10 from competition binding against a panel of kinases. The conditions noted are these: compounds at 10 μM; for Kinase specificty: S(10)-359 panel: panel of 359 distinct kinases; for Kinase specificty: S(10)-386 panel: panel of 386 distinct kinases. Put shortly: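 Compounds were tested at 10 μM in competition binding against T7 phage-fused or HEK-293-expressed DNA-tagged kinases with immobilized affinity ligands, 1 h at room temperature. Bound kinase was quantified by qPCR as percent of DMSO control; S10 is the fraction of distinct kinases (mutants excluded) with POC below 10.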

T2 sequence (P10721 26-976): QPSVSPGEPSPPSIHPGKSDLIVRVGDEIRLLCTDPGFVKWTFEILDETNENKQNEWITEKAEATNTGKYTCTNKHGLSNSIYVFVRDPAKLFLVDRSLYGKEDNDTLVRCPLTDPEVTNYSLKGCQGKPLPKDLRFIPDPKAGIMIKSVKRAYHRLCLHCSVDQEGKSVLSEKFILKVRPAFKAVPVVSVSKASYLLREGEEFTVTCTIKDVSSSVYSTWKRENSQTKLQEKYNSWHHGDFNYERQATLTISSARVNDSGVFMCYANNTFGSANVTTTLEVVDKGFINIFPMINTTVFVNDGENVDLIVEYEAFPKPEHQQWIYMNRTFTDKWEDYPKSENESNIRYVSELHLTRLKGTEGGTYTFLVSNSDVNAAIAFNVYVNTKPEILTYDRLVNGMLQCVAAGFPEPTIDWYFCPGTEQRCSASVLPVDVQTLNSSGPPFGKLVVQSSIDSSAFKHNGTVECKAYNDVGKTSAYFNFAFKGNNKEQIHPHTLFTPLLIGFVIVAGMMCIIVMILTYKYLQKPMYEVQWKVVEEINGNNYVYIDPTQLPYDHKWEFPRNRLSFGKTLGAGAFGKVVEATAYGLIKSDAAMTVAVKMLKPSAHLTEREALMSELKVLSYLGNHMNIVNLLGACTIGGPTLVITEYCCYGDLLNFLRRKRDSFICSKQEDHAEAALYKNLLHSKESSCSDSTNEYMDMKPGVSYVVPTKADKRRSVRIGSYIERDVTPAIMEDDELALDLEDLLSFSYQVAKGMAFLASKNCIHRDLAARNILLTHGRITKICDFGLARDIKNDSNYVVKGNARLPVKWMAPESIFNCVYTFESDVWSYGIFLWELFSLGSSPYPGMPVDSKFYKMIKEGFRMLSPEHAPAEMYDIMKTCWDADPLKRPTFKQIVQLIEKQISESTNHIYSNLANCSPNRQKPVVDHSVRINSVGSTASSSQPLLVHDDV
T3 sequence (P07333 20-972): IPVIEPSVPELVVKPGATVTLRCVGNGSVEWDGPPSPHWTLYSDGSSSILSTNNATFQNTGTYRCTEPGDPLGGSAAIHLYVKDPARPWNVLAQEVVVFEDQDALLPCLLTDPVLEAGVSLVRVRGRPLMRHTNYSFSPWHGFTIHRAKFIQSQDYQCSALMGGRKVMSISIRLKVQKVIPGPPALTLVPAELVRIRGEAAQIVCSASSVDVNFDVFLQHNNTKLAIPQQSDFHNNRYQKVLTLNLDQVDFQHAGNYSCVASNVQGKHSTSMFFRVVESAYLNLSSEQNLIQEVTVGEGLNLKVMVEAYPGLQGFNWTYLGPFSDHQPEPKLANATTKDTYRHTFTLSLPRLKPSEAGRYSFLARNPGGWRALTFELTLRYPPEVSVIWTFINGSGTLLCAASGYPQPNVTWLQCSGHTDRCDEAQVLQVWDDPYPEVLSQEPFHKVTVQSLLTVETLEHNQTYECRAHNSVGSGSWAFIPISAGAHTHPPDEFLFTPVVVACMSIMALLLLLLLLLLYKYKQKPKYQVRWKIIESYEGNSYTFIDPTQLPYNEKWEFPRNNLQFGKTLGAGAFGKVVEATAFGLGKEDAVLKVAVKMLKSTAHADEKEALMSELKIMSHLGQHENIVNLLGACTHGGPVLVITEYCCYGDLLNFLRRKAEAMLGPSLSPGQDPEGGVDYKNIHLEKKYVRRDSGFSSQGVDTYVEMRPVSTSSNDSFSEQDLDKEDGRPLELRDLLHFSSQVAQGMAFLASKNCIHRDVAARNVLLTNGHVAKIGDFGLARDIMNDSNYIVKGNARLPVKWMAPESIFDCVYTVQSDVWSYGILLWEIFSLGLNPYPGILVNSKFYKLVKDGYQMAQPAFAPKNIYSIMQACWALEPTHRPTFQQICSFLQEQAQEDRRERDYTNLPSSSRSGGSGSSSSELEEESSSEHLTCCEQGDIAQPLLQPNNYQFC

For `CC(C)(C)c1cc(NC(=O)Nc2ccc(-c3ccc(N)nc3)c(Cl)c2)no1` [Example 16, 1-(4-(6-aminopyridin-3-yl)-3-chlorophenyl)-3-(5-tert-butylisoxazol-3-yl)urea], the Kd was no more than 1 nM at FLT3 kinase, no more than 1 nM at KIT kinase and 10 to 100 nM on CSF-1R kinase. For the same compound, in the assay with MV4-11 cells, the IC50 fell in the range of 1 to 10 nM. Further, the “Kinase specificty: S(10)-359 panel” value in assay [1] was “B (0.1<B≦0.2 nM)”.

Regarding `CC(C)(C)c1cc(NC(=O)Nc2ccc(-c3ccc(N)nc3)cc2F)no1` [Example 14, 1-[4-(6-aminopyridin-3-yl)-2-fluorophenyl]-3-(5-tert-butylisoxazol-3-yl)-urea], the Kd was no more than 1 nM on FLT3 kinase, no more than 1 nM on KIT kinase and no more than 10 nM at CSF-1R kinase. In addition, the IC50 in the assay with MV4-11 cells was no more than 1 nM. The “Kinase specificty: S(10)-359 panel” value in assay [1] is “B (0.1<B≦0.2 nM)”.

As for `CC1(c2cc(NC(=O)Cc3ccc(-c4cnc(N)c(F)c4)cc3)no2)COC1.CS(=O)(=O)O` [Example 146, 3-fluoro-5-(4-(2-((5-(3-methyloxetan-3-yl)isoxazol-3-yl)amino)-2-oxoethyl)phenyl)pyridin-2-aminium methanesulfonate], the Kd on FLT3 kinase was no more than 1 nM; at KIT kinase, no more than 1 nM; at CSF-1R kinase, no more than 10 nM. Besides, the IC50 in the assay with MV4-11 cells was 1 to 10 nM. Also, the “Kinase specificty: S(10)-386 panel” value in assay [1] is reported as “A (A≦0.1)”.

As to `CC(C)(C)c1cc(NC(=O)Nc2ccc(-c3cnc(NCCN4CCOCC4)c(C#N)c3)cc2)no1` [Example 6, 1-(5-tert-butylisoxazol-3-yl)-3-(4-(5-cyano-6-(2-morpholinoethylamino)pyridin-3-yl)phenyl)urea], the Kd is 1 to 10 nM on FLT3 kinase, 1 to 10 nM on KIT kinase and 10 to 100 nM at CSF-1R kinase. The compound also came in with an IC50 in the assay with MV4-11 cells of 1 to 10 nM. Besides, the “Kinase specificty: S(10)-359 panel” value in assay [1] is “A (A≦0.1)”.

For the compound `CC(C)(C)c1cc(NC(=O)Cc2ccc(-c3ccc(NCCN4CCC(F)(F)CC4)nc3)cc2)no1.CS(=O)(=O)O` [Example 108, 1-(2-(5-(4-(2-(5-tert-butylisoxazol-3-ylamino)-2-oxoethyl)phenyl)pyridin-2-ylamino)ethyl)-4,4-difluoropiperidinium methanesulfonate], the Kd was no more than 1 nM at FLT3 kinase, 1 to 10 nM at KIT kinase and no more than 10 nM at CSF-1R kinase. Besides, the IC50 in the assay on MV4-11 cells was 1 to 10 nM. Also, in assay [1], the “Kinase specificty: S(10)-386 panel” value is “A (A≦0.1)”.

For the compound `CC(C)(C)c1cc(NC(=O)Cc2ccc(-c3ccc(N)nc3F)cc2)on1.CS(=O)(=O)O` [Example 119, 5-(4-(2-(3-tert-butylisoxazol-5-ylamino)-2-oxoethyl)phenyl)-6-fluoropyridin-2-aminium methanesulfonate], the Kd on FLT3 kinase was no more than 1 nM; on KIT kinase it was 1 to 10 nM; at CSF-1R kinase, no more than 10 nM. This compound also showed an IC50 in the assay on MV4-11 cells of no more than 1 nM. Besides, the “Kinase specificty: S(10)-386 panel” value in assay [1] is listed as “A (A≦0.1)”.

Regarding `CC(C)(C)c1cc(NC(=O)Nc2ccc(-c3cnc(N)c(CO)c3)cc2)no1` [Example 8, 1-(4-(6-amino-5-(hydroxymethyl)pyridin-3-yl)phenyl)-3-(5-tert-butylisoxazol-3-yl)urea], the dissociation constant (Kd) at FLT3 kinase is 1 to 10 nM; on KIT kinase, 1 to 10 nM; at CSF-1R kinase, no more than 10 nM. The compound also returned an IC50 in the assay on MV4-11 cells greater than 500 nM. In addition, in assay [1], the “Kinase specificty: S(10)-359 panel” value was “A (A≦0.1)”.

With `CC(C)(C)c1cc(NC(=O)Cc2ccc(-c3cnc(N)cc3Cl)cc2)no1.CS(=O)(=O)O` [Example 150, 5-(4-(2-(5-tert-butylisoxazol-3-ylamino)-2-oxoethyl)phenyl)-4-chloropyridin-2-aminium methanesulfonate], the Kd at FLT3 kinase was no more than 1 nM; on KIT kinase, 1 to 10 nM; on CSF-1R kinase, no more than 10 nM. In the assay on MV4-11 cells, this compound registered an IC50 of 1 to 10 nM. Moreover, the “Kinase specificty: S(10)-386 panel” value in assay [1] is “A (A≦0.1)”.

As for `CC(C)(C)c1cc(NC(=O)Cc2ccc(-c3cnc4[nH]c(=O)[nH]c4c3)cc2)no1` [Example 147, N-(5-tert-butylisoxazol-3-yl)-2-(4-(2-oxo-2,3-dihydro-1H-imidazo[4,5-b]pyridin-6-yl)phenyl)acetamide], the Kd on FLT3 kinase is 1 to 10 nM; on KIT kinase it was 1 to 10 nM; at CSF-1R kinase, no more than 10 nM. In the assay on MV4-11 cells, this compound yielded a half-inhibitory concentration (IC50) of no more than 1 nM. Further, in assay [1], the “Kinase specificty: S(10)-386 panel” value is on record as “B (0.1<B≦0.2 nM)”.

As for `CN(C)CCNc1ncc(-c2ccc(NC(=O)Nc3cc(C(C)(C)C)on3)cc2)cn1` [Example 57, 1-(5-tert-butylisoxazol-3-yl)-3-(4-(2-(2-(dimethylamino)ethylamino)pyrimidin-5-yl)phenyl)urea], the Kd is no more than 1 nM at FLT3 kinase, no more than 1 nM at KIT kinase and no more than 10 nM on CSF-1R kinase. The compound also yielded an IC50 with MV4-11 cells of 10 to 100 nM. For the same compound, the “Kinase specificty: S(10)-359 panel” value in assay [1] is on record as “A (A≦0.1)”.

`CC(C)(C)c1cc(NC(=O)Cc2ccc(-c3ccc(NCCN4CCOCC4)nc3)cc2)no1.CS(=O)(=O)O` [Example 105, 5-(4-(2-(5-tert-butylisoxazol-3-ylamino)-2-oxoethyl)phenyl)-N-(2-morpholinoethyl)pyridin-2-aminium methanesulfonate]: the Kd was no more than 1 nM at FLT3 kinase, no more than 1 nM at KIT kinase and no more than 10 nM at CSF-1R kinase. This compound registered an IC50 in the assay on MV4-11 cells of 1 to 10 nM. For the same compound, the “Kinase specificty: S(10)-386 panel” value in assay [1] is listed as “B (0.1<B≦0.2 nM)”.

Take `CC(C)(C)c1cc(NC(=O)Nc2ccc(-c3cnc(N)nc3)cc2)no1` [Example 44, 1-(4-(2-aminopyrimidin-5-yl)phenyl)-3-(5-tert-butylisoxazol-3-yl)urea]: the Kd on FLT3 kinase was no more than 1 nM; at KIT kinase, 1 to 10 nM; on CSF-1R kinase, no more than 10 nM. The IC50 in the assay on MV4-11 cells is no more than 1 nM. Further, in assay [1], the “Kinase specificty: S(10)-359 panel” value is recorded as “B (0.1<B≦0.2 nM)”.

Regarding `CC(C)(C)c1cc(NC(=O)Nc2ccc(-c3cnc4c(c3)CCCN4)cc2)no1` [Example 12, 1-(5-tert-butylisoxazol-3-yl)-3-(4-(5,6,7,8-tetrahydro-1,8-naphthyridin-3-yl)phenyl)urea], the values for the Kd on FLT3 kinase, at KIT kinase and on CSF-1R kinase were 1 to 10 nM, 1 to 10 nM and no more than 10 nM, respectively. This compound had an IC50 with MV4-11 cells of 1 to 10 nM. For the same compound, the “Kinase specificty: S(10)-359 panel” value in assay [1] is reported as “A (A≦0.1)”.

With `CC(C)(C)c1cc(NC(=O)Nc2ccc(-c3ccc(NCCN4CCOCC4)nc3)cc2)no1` [Example 7, 1-(5-tert-butyl-isoxazol-3-yl)-3-{4-[6-(2-morpholin-4-yl-ethylamino)-pyridin-3-yl]-phenyl}urea], the figures for the Kd at FLT3 kinase, on KIT kinase and on CSF-1R kinase were no more than 1 nM, no more than 1 nM and no more than 10 nM, respectively. The compound further came in with an IC50 in the assay on MV4-11 cells of 1 to 10 nM. Besides, the “Kinase specificty: S(10)-359 panel” value in assay [1] is reported as “A (A≦0.1)”.

On to `CC(C)(C)c1cc(NC(=O)Nc2ccc(-c3cnc4c(c3)OCC(CCO)N4)cc2)no1` (stereo not shown) [Example 5, 1-(5-tert-butylisoxazol-3-yl)-3-(4-(3-(2-hydroxyethyl)-3,4-dihydro-2H-pyrido[3,2-b][1,4]oxazin-7-yl)phenyl)urea], for which the Kd at FLT3 kinase is no more than 1 nM; on KIT kinase, 1 to 10 nM; on CSF-1R kinase, no more than 10 nM. In the assay with MV4-11 cells, this compound returned an IC50 of no more than 1 nM. Further, in assay [1], the “Kinase specificty: S(10)-359 panel” value is “B (0.1<B≦0.2 nM)”.

`CC(F)(F)C1(c2cc(NC(=O)Cc3ccc(-c4ccc(N)nc4F)cc3)no2)CC1` [Example 159]: the Kd was 1 to 10 nM on FLT3 kinase, 1 to 10 nM on KIT kinase and no more than 10 nM on CSF-1R kinase. For the same compound, in the assay with MV4-11 cells, the IC50 was no more than 1 nM. In addition, the “Kinase specificty: S(10)-386 panel” value in assay [1] is listed as “A (A≦0.1)”.

As for `CC(C)(C)c1cc(NC(=O)Nc2ccc(-c3cnc(NCCN4CCOCC4)nc3)cn2)no1` [Example 61, 1-(5-tert-butylisoxazol-3-yl)-3-{5-[2-(2-morpholin-4-yl-ethylamino)pyrimidin-5-yl]pyridin-2-yl}urea], the Kd is no more than 1 nM at FLT3 kinase, no more than 1 nM at KIT kinase and no more than 10 nM on CSF-1R kinase. In the assay with MV4-11 cells, the IC50 was in the range of 10 to 100 nM. Further, in assay [1], the “Kinase specificty: S(10)-359 panel” value is given as “A (A≦0.1)”.
